{"source": "PubChem BioAssay AID602328", "about": "(NMMLSC, 2012)", "molecular_target": "Botulinum neurotoxin type A (Clostridium botulinum (strain Hall / ATCC 3502 / NCTC 13319 / Type A)) (UniProt P0DPI1)", "sequence (P0DPI1 whole entry, looked up)": "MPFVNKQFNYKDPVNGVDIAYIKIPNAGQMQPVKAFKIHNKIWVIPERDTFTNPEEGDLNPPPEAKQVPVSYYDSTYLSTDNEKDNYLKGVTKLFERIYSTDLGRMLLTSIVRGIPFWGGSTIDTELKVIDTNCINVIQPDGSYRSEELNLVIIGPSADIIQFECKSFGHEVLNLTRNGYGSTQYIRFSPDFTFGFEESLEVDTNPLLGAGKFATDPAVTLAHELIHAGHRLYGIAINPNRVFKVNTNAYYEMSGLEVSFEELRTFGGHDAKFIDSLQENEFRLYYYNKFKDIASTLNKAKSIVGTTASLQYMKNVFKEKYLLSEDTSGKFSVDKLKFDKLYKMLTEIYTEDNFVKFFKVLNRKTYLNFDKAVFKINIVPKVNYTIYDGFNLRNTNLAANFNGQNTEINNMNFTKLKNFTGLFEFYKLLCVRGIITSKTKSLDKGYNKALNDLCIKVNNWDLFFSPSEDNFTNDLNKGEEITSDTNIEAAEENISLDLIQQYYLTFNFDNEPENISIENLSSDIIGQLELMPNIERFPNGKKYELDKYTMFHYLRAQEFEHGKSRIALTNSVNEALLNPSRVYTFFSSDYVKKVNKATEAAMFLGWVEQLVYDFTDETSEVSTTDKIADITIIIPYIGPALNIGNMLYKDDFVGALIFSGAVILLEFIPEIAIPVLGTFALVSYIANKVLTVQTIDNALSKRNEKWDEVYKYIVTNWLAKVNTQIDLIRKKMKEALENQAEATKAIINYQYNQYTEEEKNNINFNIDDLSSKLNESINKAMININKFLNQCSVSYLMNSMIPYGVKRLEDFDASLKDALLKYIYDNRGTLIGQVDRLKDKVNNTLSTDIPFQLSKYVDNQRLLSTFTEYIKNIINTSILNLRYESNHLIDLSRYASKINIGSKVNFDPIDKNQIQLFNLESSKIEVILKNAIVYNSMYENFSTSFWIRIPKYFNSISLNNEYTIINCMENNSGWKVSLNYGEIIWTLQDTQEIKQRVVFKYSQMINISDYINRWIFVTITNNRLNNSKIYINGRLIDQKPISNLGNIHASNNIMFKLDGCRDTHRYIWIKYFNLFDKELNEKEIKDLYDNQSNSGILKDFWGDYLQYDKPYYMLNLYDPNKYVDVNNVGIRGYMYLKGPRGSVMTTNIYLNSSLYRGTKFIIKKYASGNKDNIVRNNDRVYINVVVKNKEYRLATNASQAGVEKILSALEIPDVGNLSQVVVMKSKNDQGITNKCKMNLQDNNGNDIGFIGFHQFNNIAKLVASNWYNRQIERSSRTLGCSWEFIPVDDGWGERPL", "experiment": "inhibition of botulinum toxin A LC cleavage – biochemical, multiplex microsphere flow cytometry, cherry pick 02, dose response (AID 602328)", "conditions": "BoNT/A LC substrate cleavage", "note": "The source made the active and inactive calls. How the calls were made is not given here."}
{"smiles": "O=c1c(/C=C(\\O)c2ccccc2)nc2ccccc2n1-c1ccccc1", "values": [{"measurement": "IC50", "value": "> 20 µM (inactive)"}]}
{"smiles": "Oc1[nH]c(N=C2N=c3ccccc3=N2)c2ccccc12", "values": [{"measurement": "IC50", "value": "> 20 µM (inactive)"}]}
